# Legend:
# [1] = test system: HIV-1 K103N mutant strain; assay: microbe, parasite or virus in culture; assay type: cell-based; details: for EC50: Human immunodeficiency virus 1, MT4, read-out: EC50 K103N, MT-4 cells, K103N, MTT method; for SI K103N: ratio CC50/EC50, K103N; for RF K103N: ratio EC50 (resistant viral strain)/EC50 (wild-type viral strain)
# Protocol: (§1) All data were calculated using the median optical density (OD) value of three wells.
# [2] = test system: HIV-1 E138K mutant strain; assay: microbe, parasite or virus in culture; assay type: cell-based; details: for EC50: Human immunodeficiency virus 1, MT4, read-out: EC50 E138K; for SI E138K: ratio CC50/EC50, E138K; for RF E138K: ratio EC50 (resistant viral strain)/EC50 (wild-type viral strain)
# Protocol: as §1
# [3] = test system: wild-type HIV-1 (IIIB); assay: microbe, parasite or virus in culture; assay type: cell-based; details: for EC50: Human immunodeficiency virus 1, MT4, MT-4 cells, HIV-1 IIIB, MTT method; for RF IIIB: ratio EC50(resistant strain)/EC50(wild-type strain); for SI IIIB: selectivity index, ratio CC50/EC50, IIIB
# Protocol: as §1
# [4] = test system: HIV-1 Y181C mutant strain; assay: microbe, parasite or virus in culture; assay type: cell-based; details: for EC50: Human immunodeficiency virus 1, MT4, read-out: EC50 Y181C, MT-4 cells, Y181C, MTT method; for SI Y181C: ratio CC50/EC50, Y181C; for RF Y181C: ratio EC50 (resistant viral strain)/EC50 (wild-type viral strain)
# Protocol: as §1
# [5] = test system: HIV-1 double-mutant strain RES056 (K103N/Y181C); assay: microbe, parasite or virus in culture; assay type: cell-based; details: for EC50: Human immunodeficiency virus 1, MT4, read-out: EC50 RES056; for RF RES056: ratio EC50(resistant strain)/EC50(wild-type strain); for SI RES056: selectivity index, ratio CC50/EC50, RES056
# Protocol: as §1
# [6] = test system: HIV-1 Y188L mutant strain; assay: microbe, parasite or virus in culture; assay type: cell-based; details: for EC50: Human immunodeficiency virus 1, MT4, read-out: EC50 Y188L; for SI Y188L: ratio CC50/EC50, Y188L; for RF Y188L: ratio EC50 (resistant viral strain)/EC50 (wild-type viral strain)
# Protocol: as §1
# [7] = test system: HIV-1 F227L + V106A mutant strain; assay: microbe, parasite or virus in culture; assay type: cell-based; details: for EC50: Human immunodeficiency virus 1, MT4, read-out: EC50 F227L + V106A; for SI F227L + V106A: ratio CC50/EC50, F227L + V106A; for RF F227L + V106A: ratio EC50 (resistant viral strain)/EC50 (wild-type viral strain)
# Protocol: as §1
# [8] = test system: HIV-1 L100I mutant strain; assay: microbe, parasite or virus in culture; assay type: cell-based; details: for EC50: Human immunodeficiency virus 1, MT4, read-out: EC50 L100I; for SI L100I: ratio CC50/EC50, L100I; for RF L100I: ratio EC50 (resistant viral strain)/EC50 (wild-type viral strain)
# Protocol: as §1
# [9] = Cytotoxicity in mock-infected MT-4 cells, MTT method; assay type: cell-based; details: human
# Protocol: The 3-(4,5-dimethylthiazol-2-yl)-2,5-diphenyltetrazolium bromide (MTT) method was used to evaluate the antiviral activity and cytotoxicity of the synthesized compounds as previously described. At the beginning of each experiment, stock solutions (10× final concentration) of test compounds were added in 25 μL volumes to two series of triplicate wells for allowing the simultaneous evaluation of their effects on mock- and HIV-infected cells. The serial 5-fold dilutions of the compounds were made in flat-bottomed 96-well microtiter trays directly, including untreated control HIV-1 and mock infected cell samples for each sample using a Biomek 3000 robot (Beckman Instruments, Fullerton, CA, USA). HIV-1 (IIIB) and mutant HIV-1 strains (RES056, F227L/V106A, L100I, K103N, E138K, Y181C, and Y188L) stock (50 μL at 100–300 CCID50) (50% cell culture infectious dose) or culture medium was added to either the infected or mock-infected wells of the microtiter tray. Mock-infected cells were used to evaluate the effect on uninfected cells to assess the cytotoxicity of the test compounds. Exponentially growing MT-4 cells were centrifuged for […] at 1000 rpm (Eppendorf 5424, Hamburg, Germany) and then the supernatant was discarded. The MT-4 cells were resuspended at 6 × 10^5 cells/mL and 50 μL aliquots were transferred to the microtiter tray wells. At 5 days after infection, the viability of mock- and HIV-infected cells was determined spectrophotometrically by means of MTT assay.
# (§2) The MTT assay is based on the reduction of yellow-colored MTT (Acros Organics, Geel, Belgium) by mitochondrial dehydrogenase of metabolically active cells to form a blue-purple formazan. The absorbances were read in an eight-channel computer-controlled photometer at the wavelengths of 540 and 690 nm. All data were calculated using the median optical density (OD) value of three wells.
# [10] = molecular target: T1, recombinant wild-type HIV-1 RT enzyme (Human immunodeficiency virus type 1 group M subtype B, UniProt P03366); assay: HIV-1 RT inhibition assay (ELISA, Roche RT assay kit); assay type: biochemical
# T1 construct: recombinant wild-type HIV-1 RT enzyme; purchased Roche (Basel, Switzerland)
# Protocol: The HIV-1 RT inhibition assay was performed by using an RT assay kit produced by Roche (Basel, Switzerland).
# The biotin-labeled dNTPs were incorporated into the cDNA chain in the presence of RT and bound to streptavidin. The washing buffer was used to wash the unbound dNTPs and add the anti-DIG-POD to the MTPs.
# The peroxide substrate (ABST) solution was added to the MTPs, when the unbound anti-DIG-PODs were washed out. […] The absorbance of the sample was determined at OD405 nm using a microtiter plate ELISA reader. The percentage inhibitory activity of RT inhibitors was calculated according to the following formula: % inhibition = [O.D. value with RT but without inhibitors − O.D. value with RT and inhibitors]/[O.D. value with RT and inhibitors − O.D. value without RT and inhibitors].
# [11] = test system: wild-type and mutant HIV-1 strains; assay: Anti-HIV-1 activity in MT-4 cells, MTT method, panel of strains (range over strains); assay type: cell-based; details: Human immunodeficiency virus 1, MT4, read-out: EC50 values over wild-type and a panel of single mutations
# Protocol: […]. […] […].
# The 3-(4,5-dimethylthiazol-2-yl)-2,5-diphenyltetrazolium bromide (MTT) method was used to evaluate the antiviral activity and cytotoxicity of the synthesized compounds as previously described. At the beginning of each experiment, stock solutions (10× final concentration) of test compounds were added in 25 μL volumes to two series of triplicate wells for allowing the simultaneous evaluation of their effects on mock- and HIV-infected cells. The serial 5-fold dilutions of the compounds were made in flat-bottomed 96-well microtiter trays directly, including untreated control HIV-1 and mock infected cell samples for each sample using a Biomek 3000 robot (Beckman Instruments, Fullerton, CA, USA). […] At 5 days after infection, the viability of mock- and HIV-infected cells was determined spectrophotometrically by means of MTT assay.
# as §2
structure (smiles),measurement,setting,value
"Cc1cc(/C=C/C#N)cc(C)c1Oc1nc(Nc2ccc(B3OC(C)(C)C(C)(C)O3)cc2)nc2c1COC2 [Compound 4c, (E)-3-(3,5-Dimethyl-4-((2-((4-(4,4,5,5-tetramethyl-1,3,2-dioxaborolan-2-yl)phenyl)amino)-5,7-dihydrofuro [3,4-d]pyrimidin-4-yl)oxy)phenyl)acrylonitrile]",melting point,,134 to 136 °C
same,EC50,[1],26 ± 5 nM
same,SI K103N,[1],3110
same,RF K103N,[1],1.9
same,EC50,[2],39 ± 18 nM
same,SI E138K,[2],2036
same,RF E138K,[2],2.9
same,EC50,[3],14 ± 6 nM
same,RF IIIB,[3],1.0
same,SI IIIB,[3],5890
same,EC50,[4],1280 ± 489 nM
same,SI Y181C,[4],63
same,RF Y181C,[4],94.2
same,EC50,[5],13900 ± 9320 nM
same,RF RES056,[5],1018
same,SI RES056,[5],6
same,EC50,[6],3960 ± 894 nM
same,SI Y188L,[6],20
same,RF Y188L,[6],290.3
same,EC50,[7],5880 ± 2520 nM
same,SI F227L + V106A,[7],14
same,RF F227L + V106A,[7],431.5
same,EC50,[8],553 ± 152 nM
same,SI L100I,[8],145
same,RF L100I,[8],40.6
same,CC50 at 5 days,[9],80300 ± 31300 nM
same,IC50,[10],200 ± 28 nM
"Cc1cc(/C=C/C#N)cc(C)c1Oc1nc(Nc2ccc(B3OC(C)(C)C(C)(C)O3)cc2)nc2sccc12 [Compound 4b, (E)-3-(3,5-Dimethyl-4-((2-((4-(4,4,5,5-tetramethyl-1,3,2-dioxaborolan-2-yl)phenyl)amino)thieno [2,3-d]pyrimidin-4-yl)oxy)phenyl)acrylonitrile]",EC50,[1],8 ± 2 nM
same,SI K103N,[1],2866
same,RF K103N,[1],0.8
same,EC50,[2],30 ± 9 nM
same,SI E138K,[2],732
same,RF E138K,[2],3.0
same,EC50,[3],10 ± 3 nM
same,RF IIIB,[3],1.0
same,SI IIIB,[3],2161
same,EC50,[4],675 ± 188 nM
same,SI Y181C,[4],33
same,RF Y181C,[4],65.9
same,EC50,[5],2300 ± 660 nM
same,fold more potent than 3b,"[5]; RES056 EC50, versus 3b",75 fold
same,RF RES056,[5],224
same,SI RES056,[5],10
same,EC50,[6],2520 ± 238 nM
same,SI Y188L,[6],9
same,RF Y188L,[6],246.1
same,EC50,[7],3210 ± 1970 nM
same,SI F227L + V106A,[7],7
same,RF F227L + V106A,[7],313.5
same,EC50,[8],280 ± 55 nM
same,SI L100I,[8],79
same,RF L100I,[8],27.4
same,CC50 at 5 days,[9],22100 ± 3690 nM
same,IC50,[10],47 ± 1 nM
"Cc1cc(/C=C/C#N)cc(C)c1Oc1nc(Nc2ccc(B3OC(C)(C)C(C)(C)O3)cc2)nc2ccsc12 [Compound 4a, (E)-3-(3,5-Dimethyl-4-((2-((4-(4,4,5,5-tetramethyl-1,3,2-dioxaborolan-2-yl)phenyl)amino)thieno [3,2-d]pyrimidin-4-yl)oxy)phenyl)acrylonitrile]",EC50,[11],5 to 648 nM
same,EC50,[1],5 ± 6 nM
same,SI K103N,[1],"> 47,170"
same,RF K103N,[1],0.6
same,EC50,[2],21 ± 7 nM
same,SI E138K,[2],"> 11,261"
same,RF E138K,[2],2.4
same,EC50,[3],9 ± 2 nM
same,RF IIIB,[3],1.0
same,SI Y181C,[4],> 368
same,RF Y181C,[4],74.8
same,EC50,[5],> 238000 nM
same,RF RES056,[5],> 27516
same,EC50,[6],1610 ± 508 nM
same,SI Y188L,[6],> 148
same,EC50,[7],> 1810 nM
same,RF F227L + V106A,[7],209.7
same,EC50,[8],186 ± 32 nM
same,fold more potent than NVP,"[8]; L100I EC50, versus NVP",3.3 fold
same,SI L100I,[8],> 1285
same,RF L100I,[8],21.4
same,CC50 at 5 days,[9],> 238000 nM
same,IC50,[10],167 ± 31 nM
"Cc1cc(C#N)cc(C)c1Oc1nc(Nc2ccc(B3OC(C)(C)C(C)(C)O3)cc2)nc2c1COC2 [Compound 3c, 3,5-Dimethyl-4-((2-((4-(4,4,5,5-tetramethyl-1,3,2-dioxaborolan-2-yl)phenyl)amino) -5,7-dihydrofuro [3,4-d]pyrimidin-4-yl)oxy)benzonitrile]",melting point,,149 to 151 °C
same,EC50,[1],120 ± 19 nM
same,SI K103N,[1],792
same,RF K103N,[1],2.3
same,EC50,[2],130 ± 41 nM
same,SI E138K,[2],731
same,RF E138K,[2],2.5
same,EC50,[3],51 ± 15 nM
same,RF IIIB,[3],1.0
same,SI IIIB,[3],1847
same,EC50,[4],4370 ± 2190 nM
same,SI Y181C,[4],22
same,RF Y181C,[4],85.1
same,EC50,[5],25800 ± 7930 nM
same,RF RES056,[5],503
same,SI RES056,[5],< 1
same,EC50,[6],4520 ± 1540 nM
same,SI Y188L,[6],21
same,RF Y188L,[6],87.9
same,EC50,[7],9100 ± 2640 nM
same,SI F227L + V106A,[7],10
same,RF F227L + V106A,[7],177.2
same,EC50,[8],2430 ± 302 nM
same,SI L100I,[8],39
same,RF L100I,[8],47.3
same,CC50 at 5 days,[9],94800 ± 32200 nM
same,IC50,[10],228 ± 45 nM

# From paper PMC9657321, “Identification of Boronate-Containing Diarylpyrimidine Derivatives as Novel HIV-1 Non-Nucleoside Reverse Transcriptase Inhibitors” (Molecules, 2022)
